This series relates to FHH rats with superimposed hypertension. The experiment in a line: FHH rat with superimposed hypertension (uninephrectomy, DOCA, 1% NaCl). Format: in vivo. How it is done: Experiments were performed using male FHH rats of 9-12 weeks of age. These animals were provided by the University of Mississippi Medical Center and approved by the American Association for Accreditation of Laboratory Animal Care (AAALAC). All protocols were approved by the Institutional Animal Care and Use Committee of the University of Mississippi Medical Center. Rats were fed ad libitum, and provided with a purified AIN-76 rodent feed containing 0.4% NaCl (Dyets, Bethlehem, Pa.) after weaning. Fawn-hooded hypertensive (FHH) rat is a genetic model of spontaneous hypertension associated with glomerular hyperfiltration and proteinuria. In order to promote glomerular damage in this rat, DOCA strips were implanted after single (one) kidney extraction.
Specifically, FHH rats were anesthetized with isoflurane and telemetry transmitters (model TA11PAC40, Data Sciences International, St. Paul, Minn.) were implanted as described in ‘Williams, J. M. et al. […] Regul Integr Comp Physiol (2012)’. Briefly, surgery was performed under 2% to 3% isoflurane-O2, and the catheter of the device was inserted into the left femoral artery and guided upstream to the aorta. Body part of the telemetry unit was placed in the lateral cavity of the left leg and sutured with muscle tissue. Skin was then closed. To prevent infection, animals were given Baytril (10 mg/kg) and Rimadyl (5 mg/kg), a long-acting analgesic to control surgical pain. After surgery, rats were housed in individual cages in a quiet air-conditioned room environment with a 12:12 hour light-dark cycle and it took a week to fully recover from surgery. Thereafter, the basic mean arterial blood pressure (MAP) and proteinuria were measured for 4 hours (10 am to […]) before the rats were housed in the metabolic cage. Proteinuria was measured using the Bradford method and BSA (Bio-Rad Laboratories, Hercules, Calif.) as a standard.
One week after the transmitter insertion, rats were uninephrectomized as described in Wang, X. et al. Am J Physiol Renal Physiol (2016). Briefly, rats were anesthetized with 2-3% isoflurane-O2 and the right flank was dissected in aseptic condition. The right kidney was gently lifted and threaded tightly around the renal vessels and ureters. The right kidney was extracted by cutting the distal ends of the renal vessels and ureters. The incision was closed with a continuous subcutaneous stitch, after which the skin was further closed. After the rat's right kidney was removed, DOCA pellets (200 mg, Innovative Research of America) was subcutaneously implanted in the neck.
After single kidney extraction and DOCA transplant surgery, rats had recovery time for 3 days. Rats were provided with water containing 1% NaCl in place of distilled water, and randomly divided into two groups: Group 1 (n=15) was administered with BC-KI-00053 (25 mg/kg daily) by gastrointestinal gavage; Group 2 (n=15) was administered with the same volume (2.5 ml/kg daily) of vehicle (corn oil, polyethylene glycol 400, Tween 80 and methylcellulose) by gastrointestinal gavage. Blood pressure and proteinuria were measured weekly for 3 weeks in the experimental group. At the end of the experiment, rats were anesthetized with isoflurane and blood samples were taken to measure creatinine levels. Rats were then flushed with 50 ml of 0.9% NaCl through aorta and perfused with 20 ml of 4% paraformaldehyde. Kidneys and hearts were collected for histological evaluation.
Paraffin sections prepared with a thickness of […] were stained with Masson's trichrome to measure the degree of glomerular damage and renal interstitial fibrosis. Images were obtained using a Nikon Eclipse 55i microscope and NIS-Elements D 3.0 software equipped with Nikon DS-Fil color camera (Nikon, Melville, N.Y.). The degree of glomerular damage was assessed by the blinded experimenter, rating from 0 to 4+ for 30-40 […]. […]

[1] abbreviates: 25 mg/kg daily 3 weeks, Masson's trichrome.
Setting [2] is: 25 mg/kg daily, after two weeks of treatment.
Setting [3] is: basal, before treatment, mean±SEM.

As to `COc1ccc(CCN(Cc2ccc(C(=O)O)cc2)c2nc3cccc(F)c3s2)cc1` [BC-KI-00053, 4-({(7-fluorobenzo[d]thiazol-2-yl)[2-(4-methoxyphenyl)ethyl]amino}methyl)benzoic acid], the “renal tissue infiltration of monocytes/macrophages (CD68 IHC)” value (25 mg/kg daily 3 weeks) is reported as “significantly reduced”. The compound also returned a cortical fibrosis under setting [1] of 5.79±0.48%. The same compound gave a renal medulla fibrosis under setting [1] of 7.40±0.56%. This compound also displayed a cardiac fibrosis (25 mg/kg daily 3 weeks, Sirius red, right ventricular insertion point) of 9.14±2.18%. Also, the “mean glomerular injury score” value (25 mg/kg daily 3 weeks, score 0 to 4+) is given as 1.49±0.05. In addition, the “body weight reduction during the study period” value (25 mg/kg daily gavage, 3 weeks) was “approximately 10%”. For the same compound, the MAP is, setting by setting: (25 mg/kg daily, after one week of treatment) 174.4±3.83 mmHg; under setting [2], 168.8±3.74 mmHg; (25 mg/kg daily, three weeks) 176.9±5.83 mmHg; under setting [3], 120.1±0.62 mmHg. Also, the proteinuria reads like this: under setting [2], 285.5 ± 47.48 mg/day; (25 mg/kg daily, study completed (3 weeks)) 433.1 ± 60.59 mg/day; (baseline, before treatment) 51.0 ± 4.9 mg/day. For the same compound, where the note is “25 mg/kg daily, end of experiment”, the plasma creatinine concentration was 0.48 ± 0.02 mg/dL. Besides, the basal body weight under setting [3] stood at 304.7 ± 5.39 g.

Values taken from patent US11378572B2, “Therapeutic agent for immune cell migration-caused disease and method for screening same” (ZYMEDI CO., LTD., priority 2017, dated 2022).
